From patent US11643670B2, “Methods of enhancing chromosomal homologous recombination” (Massachusetts Institute of Technology, priority 2018, dated 2023)

What was measured:
Cas9 = target: T1, Cas9 (Streptococcus pyogenes serotype M1, UniProt Q99ZW2); test: In vitro Cas9 digestion assay; type: biochemical, S. pyogenes; settings: 10 ng/μL protein co-incubated, PCR amplimer of the Chd2^R1684H locus, 37° C. 1 hour
T1 construct: NLS (nuclear localization signal); purchased New England Biolabs
Method: Wildtype or Chd2^R1684H/R1684H genomic DNA was used as input for PCR using the conditions described above and the primers specified in FIGS. 10A-10D and FIG. 12. After confirmation of a single band via gel electrophoresis, the PCR reactions were purified using the DNA Clean & Concentrator kit (Zymo) according to the manufacturer's instructions. crRNA and tracrRNA were diluted 1 μM in nuclease-free Duplex Buffer (IDT) and incubated at 95° C. for 5 minutes before being allowed to cool to room temperature on the bench. Digestion mixtures were made in separate tubes by combining nuclease-free water, 10× Cas9 Nuclease Reaction Buffer (final concentration 1×, New England Biolabs), 1 μL of the cooled crRNA/tracrRNA duplex, and, if necessary, 1 μL of EnGen Cas9 NLS, S. pyogenes (New England Biolabs). These mixtures were heated to 37° C. for 10 minutes before adding 250 ng PCR product and, if necessary, RAD51 G151D (10 ng/μL final concentration, custom-produced by Creative Biomart) or BCCIP (10 ng/μL final concentration, Origene TP303061). Digestion was performed at 37° C. for 1 hour, Cas9 was denatured at 95° C., 6× Purple Gel Loading Dye (New England Biolabs) was added to a final concentration of 1×, and the samples were allowed to passively cool to room temperature. […]

maternal Chd2 locus = test: Donor-free interchromosomal homologous recombination (ICHR) in IVF-derived Chd2^R1684H/+ embryos; type: cell-based, mouse
Method: tracrRNA, crRNAs, and ssODNs were synthesized by Integrated DNA Technologies (TABLE 1). All injection mixtures were prepared in a final volume of 50 μL according to the following methodology: Using RNase-free water, reagents, and consumables, crRNA (final concentration 0.61 μM), tracrRNA (final concentration 0.61 μM), and ultrapure Tris-HCl, pH 7.39 (final concentration 10 mM, ThermoFisher) were mixed and incubated at 95° C. for 5 minutes. The mixtures were cooled to room temperature for 10 minutes on the benchtop, and then, EnGen Cas9-NLS S. pyogenes (New England Biolabs) was added to a final concentration of 30 ng/μL. The mixtures were incubated at 37° C. for 15 minutes before adding any remaining components: ssODN (final concentration 3 ng/μL or 30 ng/μL), RAD51 (Creative Biomart, final concentration 10 ng/μL). Injection mixtures were stored on ice and briefly heated to 37° C. prior to injection. For experiments utilizing RS-1, embryos were cultured in KSOM-AA (EMD Millipore MR-121-D) with […] RS-1 (Sigma) dissolved in DMSO or DMSO (Sigma, 1:1000) for 24 hours, washed, and cultured in EmbryoMax FHM HEPES Buffered Medium (Sigma) until collection for genotyping.
For experiments using wildtype recombinant proteins, the following proteins were used: RAD51 (Creative Biomart RAD51-134H), USP1/WDR48 (Creative Biomart USP1&WDR48-1067H), BCCIP (Origene TP303061), XRCC1 (TP304952), XRCC4 (Origene TP312684), DMC1 (Origene TP318311). For experiments using mutant RAD51, custom RAD51 preparations were produced by Creative Biomart according to their standard protocol for producing the wildtype RAD51 used in all other experiments. Mutant DNA sequences used for cloning are described in TABLE 2. All RAD51 mutants were modeled in human RAD51 transcript variant 4 (NCBI accession NM_001164269), as this is the transcript variant of the wildtype RAD51-134H protein used in all other experiments.
In vitro fertilization was performed using FERTIUP® Mouse Preincubation Medium and CARD MEDIA (Kyudo Company) according to the manufacturer's protocol. Non-virgin Chd2^R1684H/R1684H males that were >8 weeks old were used as sperm donors. Following IVF, embryos were cultured for 8 hours and then injected using the PNI protocol described below.
For all experiments except those described in FIG. 6, the male pronucleus was injected. Injections performed for the CPI portion of FIG. 6 were targeted to the cytoplasm. All microinjections were performed using a Narishige Micromanipulator, Nikon Eclipse TE2000-S microscope, and Eppendorf 5242 microinjector. Individual zygotes were injected with 1-2 pL of injection mixture using an “automatic” injection mode set according to needle size and adjusted for clear increase in pronuclear volume. Following injections, cells were cultured in KSOM-AA until collection for genotyping. For experiments giving rise to F0 animals, embryos were surgically implanted into pseudopregnant CD-1 females (Charles River Laboratories, Strain Code 022) 24-hours post-injection and allowed to develop normally until natural birth.
Embryos were collected at morula-to-blastocyst stage in 4 μL nuclease-free water. After collection, 4 μL of 2× embryo digestion buffer was added to each sample (final concentrations: 125 μg/mL proteinase K, 100 mM Tris-HCl pH 8.0, 100 mM KCl, 0.02% gelatin, 0.45% Tween-20, 60 μg/mL yeast tRNA) and embryos were lysed for 1 hour at 56° C. Proteinase K was inactivated via incubation at 95° C. for 10 minutes and DNA was stored at −20° C. until use.
Chd2^R1684H genotyping was performed via a two-step, nested approach. Except for experiments described in FIGS. 3A-3G, all 8 μL of embryo DNA were used as input for the initial, long round of PCR. Genotyping of mouse pups and adult animals was performed using 2 μL of purified tail DNA. For all embryo genotyping, reactions mixtures were set up in a UV-sterilized laminar flow hood using sterile reagents and filter tips to avoid contamination. […]

[1] = co-injected with Cas9/crRNA/tracrRNA, no donor
[2] = compared to embryos injected with wildtype RAD51

T1 sequence (Q99ZW2 whole entry): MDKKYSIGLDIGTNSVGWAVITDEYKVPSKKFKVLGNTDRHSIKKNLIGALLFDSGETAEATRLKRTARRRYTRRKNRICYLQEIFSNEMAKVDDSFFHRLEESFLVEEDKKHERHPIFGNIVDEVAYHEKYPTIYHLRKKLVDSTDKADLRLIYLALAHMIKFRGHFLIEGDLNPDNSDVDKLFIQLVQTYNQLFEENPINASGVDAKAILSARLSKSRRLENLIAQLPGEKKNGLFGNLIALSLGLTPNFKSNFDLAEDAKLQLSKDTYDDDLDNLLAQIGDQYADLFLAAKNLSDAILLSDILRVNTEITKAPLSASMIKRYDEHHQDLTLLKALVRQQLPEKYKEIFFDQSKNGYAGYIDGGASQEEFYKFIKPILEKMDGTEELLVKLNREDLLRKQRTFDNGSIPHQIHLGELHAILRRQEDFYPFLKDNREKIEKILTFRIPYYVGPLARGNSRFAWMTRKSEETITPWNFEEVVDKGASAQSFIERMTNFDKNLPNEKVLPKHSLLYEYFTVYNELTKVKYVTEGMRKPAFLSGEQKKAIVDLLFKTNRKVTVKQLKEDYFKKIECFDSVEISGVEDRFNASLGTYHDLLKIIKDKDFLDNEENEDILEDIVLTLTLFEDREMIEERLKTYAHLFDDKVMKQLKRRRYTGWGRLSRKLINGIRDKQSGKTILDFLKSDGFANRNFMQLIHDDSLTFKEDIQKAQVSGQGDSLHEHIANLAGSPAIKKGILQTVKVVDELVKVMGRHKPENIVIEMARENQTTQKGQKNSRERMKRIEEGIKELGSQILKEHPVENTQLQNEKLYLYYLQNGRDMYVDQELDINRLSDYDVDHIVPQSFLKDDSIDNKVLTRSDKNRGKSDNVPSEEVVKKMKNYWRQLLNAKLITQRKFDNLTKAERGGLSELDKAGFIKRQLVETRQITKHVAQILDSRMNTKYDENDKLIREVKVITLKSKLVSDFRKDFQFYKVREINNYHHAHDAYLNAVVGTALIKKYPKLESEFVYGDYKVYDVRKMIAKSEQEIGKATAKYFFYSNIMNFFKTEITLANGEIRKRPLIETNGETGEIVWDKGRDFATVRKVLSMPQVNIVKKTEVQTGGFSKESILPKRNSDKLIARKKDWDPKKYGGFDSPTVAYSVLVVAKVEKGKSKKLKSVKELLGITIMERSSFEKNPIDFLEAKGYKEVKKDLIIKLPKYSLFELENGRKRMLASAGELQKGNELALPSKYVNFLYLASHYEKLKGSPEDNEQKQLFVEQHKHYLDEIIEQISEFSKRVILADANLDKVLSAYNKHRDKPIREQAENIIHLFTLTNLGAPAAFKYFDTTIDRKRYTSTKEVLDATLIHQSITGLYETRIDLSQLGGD

Substance	direct inhibition of Cas9 nuclease activity (Cas9)	efficiency of ICHR stimulation (maternal Chd2 locus)	embryos with mosaic ICHR that were mosaic with an indel (maternal Chd2 locus)	indel-to-ICHR ratio (level) (maternal Chd2 locus)	ICHR rate compared with baseline (Cas9-only embryos) (maternal Chd2 locus; [1])	edited embryos showing ICHR (maternal Chd2 locus; [1])	indel-to-ICHR ratio (maternal Chd2 locus; compared to control embryos)	overall indel rate (maternal Chd2 locus; compared to control embryos)	indel-to-ICHR ratio (maternal Chd2 locus; [2])	overall indel rate (maternal Chd2 locus; [2])	effect on mosaicism in embryos exhibiting ICHR (maternal Chd2 locus; compared to enhancer-free embryos)
BCCIP: recombinant BRCA2-interacting protein BCCIP (Origene TP303061)	not due to direct inhibition of Cas9 activity	~100%	1/14	near zero	significantly stronger effect on ICHR rates than USP1/WDR48	95%	drastic decrease	drastic decrease	significant decreases	significant decreases	strong effect on mosaicism
G151D: recombinant RAD51 gain-of-function mutant with increased strand exchange activity, SEQ ID NO: 8	did not observe any direct inhibition of Cas9 activity	–	–	–	–	–	–	–	–	–	–
